System: 610 metabolites from 63 biochemical pathways
Assay: Targeted broad-spectrum plasma metabolomic analysis (LC-MS/MS), paired pre-infusion vs post-infusion (2-days and 6-weeks)
Type: in vivo, human
Conditions: plasma, 2-days after infusion vs pre-infusion
Protocol: Targeted, broad-spectrum, plasma metabolomic analysis of 610 metabolites from 63 biochemical pathways was performed by high performance liquid chromatography and tandem mass spectrometry (LC-MS/MS) on the samples collected from patients in Example 1. Venous blood was collected between the hours of 8 am and 5 pm, at least 3 hours after the last meal, into lithium-heparin vacutainer tubes (BD #367884). Plasma was separated by centrifugation at 900 g×10 minutes at room temperature within one hour of collection. The resulting fresh lithium-heparin plasma was transferred to labeled 1.2 ml or 2.0 ml externally threaded cryotubes with a minimum headspace air gap for storage at −80° C. for analysis. Samples were analyzed on an AB SCIEX QTRAP 5500 triple quadrupole mass spectrometer equipped with a Turbo V electrospray ionization (ESI) source, Shimadzu LC-20A UHPLC system, and a PAL CTC autosampler. Typically, 90 μl of plasma was thawed on ice and transferred to a 1.7 ml Eppendorf tube. Five (5.0) μl of a cocktail containing 25-35 commercial stable isotope internal standards, and 5.0 μl of 57 stable isotope internal standards that were custom-synthesized in E. coli NCM3722, Caenorhabditis elegans N2, and Komagataella phaffii (ATCC 76273; formerly known as Pichia pastoris) by metabolic labeling with 13C-glucose and 13C-bicarbonate, were added, mixed, and incubated for 10 min at 20° C. to permit small molecules and vitamins in the internal standards to associate with plasma binding proteins. Macromolecules (protein, DNA, RNA, glycans, etc.) were precipitated by extraction with 4 volumes (400 μl) of cold (−20° C.), acetonitrile:methanol (50:50) (LCMS grade, Cat #LC015-2.5 and GC230-4, Burdick & Jackson, Honeywell), vortexed vigorously, and incubated on crushed ice for 10 min, then removed by centrifugation at 16,000 g×10 min at 4° C. The supernatants containing the extracted metabolites and internal standards in the resulting 40:40:20 solvent mix of acetonitrile:methanol:water were transferred to labeled cryotubes and stored at −80° C. for LCMS/MS analysis.
LC-MS/MS analysis was performed by scheduled multiple reaction monitoring (sMRM) under Analyst v1.6.2 software control in both negative and positive mode with rapid polarity switching (50 ms). Nitrogen was used for curtain gas (set to 30), collision gas (set to high), ion source gas 1 and 2 (set to 35). The source temperature was 500° C. Spray voltage was set to −4500 V in negative mode and 5500 V in positive mode. The values for Q1 and Q3 mass-to-charge ratios (m/z), declustering potential (DP), entrance potential (EP), collision energy (CE), and collision cell exit potential (CXP) were determined and optimized for each MRM for each metabolite. Ten microliters of extract was injected by PAL CTC autosampler via a 10 μl stainless steel loop into a 250 mm×2.0 mm, 4 μm polymer based NH2 HPLC column (Asahipak NH2P-40 2E, Showa Denko America, Inc., NY) held at 25° C. for chromatographic separation. The mobile phase was solvent A: 95% water with 20 mM (NH4)2CO3 (Sigma, Fluka Cat #74415-250G-F), 5% acetonitrile, and 38 mM NH4OH (Sigma, Fluka Cat #17837-100ML), final pH 9.75; solvent B: 100% acetonitrile. Separation was achieved using the following gradient: 0-3.5 min: 95% B, 3.6-8 min: 85% B, 8.1-13 min: 75% B, 13.5-35 min: 0% B, 36-46 min: 95% B, 46.1 min: end. The flow rate was 200 μl/min. Pump pressures ranged from 920-2600 psi over the course of the gradient. All the samples were kept at 4° C. during analysis. The chromatographic peaks were identified using MultiQuant (v3.0, Sciex), confirmed by manual inspection, and the peak areas integrated. […]

[1] = Cholesterol, Cortisol, Non-Gonadal Steroid Metabolism
[2] = Eicosanoid and Resolvin Metabolism
[3] = Fatty Acid Oxidation and Synthesis
[4] = GABA, Glutamate, Arginine, Ornithine, Proline Metabolism
[5] = Gamma-Glutamyl and other Dipeptides
[6] = Glycolysis and Gluconeogenesis Metabolism
[7] = Histidine, Histamine, Carnosine Metabolism
[8] = Nitric Oxide, Superoxide, Peroxide Metabolism
[9] = SAM, SAH, Methionine, Cysteine, Glutathione Metabolism
[10] = Taurine, Hypotaurine Metabolism
[11] = Tryptophan, Kynurenine, Serotonin, Melatonin Metabolism
[12] = Tyrosine and Phenylalanine Metabolism
[13] = Vitamin D (Calciferol) Metabolism

## Cc1ccc(C(=O)Nc2ccc(S(=O)(=O)O)c3cc(S(=O)(=O)O)cc(S(=O)(=O)O)c23)cc1NC(=O)c1cccc(NC(=O)Nc2cccc(C(=O)Nc3cc(C(=O)Nc4ccc(S(=O)(=O)O)c5cc(S(=O)(=O)O)cc(S(=O)(=O)O)c45)ccc3C)c2)c1 [Suramin, suramin]
Ceramide Metabolism
  Z Abs, Ceramide(d18:1/18:2): 0.530
  Z Score, Ceramide(d18:1/18:2): 0.530
[1]
  Linear Ratio, 24,25-Epoxycholesterol: 1.362
  VIP Score, 24,25-Epoxycholesterol: 1.807
  Z Abs, 24,25-Epoxycholesterol: 1.014
  Z Score, 24,25-Epoxycholesterol: 1.014
[2]
  Linear Ratio, 5-HETE: 0.866
  Linear Ratio, 11(R)-HETE: 0.748
  Linear Ratio, 11,12-Epoxyeicosatrienoic acid: 0.828
  Linear Ratio, Prostaglandin J2: 0.649
  VIP Score, 5-HETE: 1.646
  VIP Score, 11(R)-HETE: 2.400
  VIP Score, 11,12-Epoxyeicosatrienoic acid: 1.535
  VIP Score, Prostaglandin J2: 1.509
  Z Abs, 5-HETE: 0.671
  Z Abs, 11(R)-HETE: 0.875
  Z Abs, 11,12-Epoxyeicosatrienoic acid: 0.634
  Z Abs, Prostaglandin J2: 0.601
  Z Score, 5-HETE: −0.671
  Z Score, 11(R)-HETE: −0.875
  Z Score, 11,12-Epoxyeicosatrienoic acid: −0.634
  Z Score, Prostaglandin J2: −0.601
Endocannabinoid Metabolism
  Linear Ratio, Anandamide: 0.684
  VIP Score, Anandamide: 1.713
  Z Abs, Anandamide: 0.709
  Z Score, Anandamide: −0.709
[3]
  Linear Ratio, Malonic acid: 0.904
  VIP Score, Malonic acid: 1.833
  Z Abs, Malonic acid: 0.825
  Z Score, Malonic acid: −0.825
[4]
  Linear Ratio, Gamma-Aminobutyric acid: 1.068
  Linear Ratio, L-Proline: 1.155
  Linear Ratio, N-Acetylglutamic acid: 1.120
  VIP Score, Gamma-Aminobutyric acid: 1.626
  VIP Score, L-Proline: 1.548
  VIP Score, N-Acetylglutamic acid: 1.505
  Z Abs, Gamma-Aminobutyric acid: 1.101
  Z Abs, L-Proline: 0.603
  Z Abs, N-Acetylglutamic acid: 0.613
  Z Score, Gamma-Aminobutyric acid: 1.101
  Z Score, L-Proline: 0.603
  Z Score, N-Acetylglutamic acid: 0.613
[5]
  Linear Ratio, Gamma-glutamyl-Alanine: 1.294
  Linear Ratio, Glycylproline: 1.773
  VIP Score, Gamma-glutamyl-Alanine: 1.575
  VIP Score, Glycylproline: 2.205
  Z Abs, Gamma-glutamyl-Alanine: 0.896
  Z Abs, Glycylproline: 1.212
  Z Score, Gamma-glutamyl-Alanine: 0.896
  Z Score, Glycylproline: 1.212
[6]
  Linear Ratio, 2,3-Diphosphoglyceric acid: 1.198
  Linear Ratio, Glycerol 3-phosphate: 1.187
  VIP Score, 2,3-Diphosphoglyceric acid: 2.600
  VIP Score, Glycerol 3-phosphate: 1.651
  Z Abs, 2,3-Diphosphoglyceric acid: 0.990
  Z Abs, Glycerol 3-phosphate: 1.151
  Z Score, 2,3-Diphosphoglyceric acid: 0.990
  Z Score, Glycerol 3-phosphate: 1.151
Glycosphingolipid Metabolism
  Linear Ratio, GC(18:1/22:0): 1.399
  VIP Score, GC(18:1/22:0): 2.123
  Z Abs, GC(18:1/22:0): 1.057
  Z Score, GC(18:1/22:0): 1.057
[7]
  Linear Ratio, 1-Methylhistidine: 1.145
  VIP Score, 1-Methylhistidine: 1.848
  Z Abs, 1-Methylhistidine: 0.899
  Z Score, 1-Methylhistidine: 0.899
Krebs Cycle
  Linear Ratio, Citramalic acid: 1.121
  Linear Ratio, Citric acid: 1.142
  VIP Score, Citramalic acid: 1.704
  VIP Score, Citric acid: 1.590
  Z Abs, Citramalic acid: 1.229
  Z Abs, Citric acid: 0.759
  Z Score, Citramalic acid: 1.229
  Z Score, Citric acid: 0.759
Microbiome Metabolism
  Linear Ratio, 2-Keto-L-gluconate: 1.264
  Linear Ratio, Indoxyl sulfate: 1.280
  Linear Ratio, Shikimate-3-phosphate: 1.047
  Linear Ratio, p-Hydroxyphenylacetic acid: 1.192
  VIP Score, 2-Keto-L-gluconate: 2.994
  VIP Score, Indoxyl sulfate: 1.858
  VIP Score, Shikimate-3-phosphate: 1.886
  VIP Score, p-Hydroxyphenylacetic acid: 2.546
  Z Abs, 2-Keto-L-gluconate: 2.586
  Z Abs, Indoxyl sulfate: 0.702
  Z Abs, Shikimate-3-phosphate: 1.033
  Z Abs, p-Hydroxyphenylacetic acid: 1.464
  Z Score, 2-Keto-L-gluconate: 2.586
  Z Score, Indoxyl sulfate: 0.702
  Z Score, Shikimate-3-phosphate: 1.033
  Z Score, p-Hydroxyphenylacetic acid: 1.464
[8]
  Linear Ratio, Azelaic acid: 0.914
  VIP Score, Azelaic acid: 1.929
  Z Abs, Azelaic acid: 2.024
  Z Score, Azelaic acid: −2.024
Phospholipid Metabolism
  Linear Ratio, LysoPC(16:0): 0.777
  Linear Ratio, PA(16:0/16:1): 0.793
  Linear Ratio, PG(16:0/16:0): 0.549
  VIP Score, LysoPC(16:0): 2.067
  VIP Score, PA(16:0/16:1): 1.998
  VIP Score, PG(16:0/16:0): 1.664
  Z Abs, LysoPC(16:0): 0.908
  Z Abs, PA(16:0/16:1): 0.813
  Z Abs, PG(16:0/16:0): 0.667
  Z Score, LysoPC(16:0): −0.908
  Z Score, PA(16:0/16:1): −0.813
  Z Score, PG(16:0/16:0): −0.667
Purine Metabolism
  Linear Ratio, 1-Methyladenine: 1.631
  Linear Ratio, AICAR: 1.309
  Linear Ratio, Allantoin: 1.663
  Linear Ratio, Cyclic adenosine monophosphate: 0.855
  Linear Ratio, Deoxyguanosine diphosphate: 0.889
  Linear Ratio, Guanosine: 0.702
  Linear Ratio, Hypoxanthine: 0.745
  Linear Ratio, Purine: 1.203
  Linear Ratio, Xanthosine: 0.821
  VIP Score, 1-Methyladenine: 2.033
  VIP Score, AICAR: 1.787
  VIP Score, Allantoin: 2.195
  VIP Score, Cyclic adenosine monophosphate: 1.949
  VIP Score, Deoxyguanosine diphosphate: 2.264
  VIP Score, Guanosine: 1.519
  VIP Score, Hypoxanthine: 2.267
  VIP Score, Purine: 1.847
  VIP Score, Xanthosine: 1.764
  Z Abs, 1-Methyladenine: 1.337
  Z Abs, AICAR: 1.310
  Z Abs, Allantoin: 0.926
  Z Abs, Cyclic adenosine monophosphate: 0.681
  Z Abs, Deoxyguanosine diphosphate: 1.276
  Z Abs, Guanosine: 0.766
  Z Abs, Hypoxanthine: 1.000
  Z Abs, Purine: 1.137
  Z Abs, Xanthosine: 1.316
  Z Score, 1-Methyladenine: 1.337
  Z Score, AICAR: 1.310
  Z Score, Allantoin: 0.926
  Z Score, Cyclic adenosine monophosphate: −0.681
  Z Score, Deoxyguanosine diphosphate: −1.276
  Z Score, Guanosine: −0.766
  Z Score, Hypoxanthine: −1.000
  Z Score, Purine: 1.137
  Z Score, Xanthosine: −1.316
Pyrimidine Metabolism
  Linear Ratio, Cytosine: 1.689
  Linear Ratio, Orotic acid: 0.670
  VIP Score, Cytosine: 2.556
  VIP Score, Orotic acid: 1.787
  Z Abs, Cytosine: 2.055
  Z Abs, Orotic acid: 0.612
  Z Score, Cytosine: 2.055
  Z Score, Orotic acid: −0.612
[9]
  Linear Ratio, Cysteamine: 1.107
  Linear Ratio, Cysteine-S-sulfate: 0.869
  Linear Ratio, Methionine sulfoxide: 1.331
  VIP Score, Cysteamine: 2.075
  VIP Score, Cysteine-S-sulfate: 1.682
  VIP Score, Methionine sulfoxide: 1.817
  Z Abs, Cysteamine: 1.398
  Z Abs, Cysteine-S-sulfate: 0.644
  Z Abs, Methionine sulfoxide: 1.738
  Z Score, Cysteamine: 1.398
  Z Score, Cysteine-S-sulfate: −0.644
  Z Score, Methionine sulfoxide: 1.738
Sphingomyelin Metabolism
  Linear Ratio, SM(d18:1/20:0): 0.712
  Linear Ratio, SM(d18:1/20:1): 0.745
  VIP Score, SM(d18:1/20:0): 1.576
  VIP Score, SM(d18:1/20:1): 2.033
  Z Abs, SM(d18:1/20:0): 0.770
  Z Abs, SM(d18:1/20:1): 1.250
  Z Score, SM(d18:1/20:0): −0.770
  Z Score, SM(d18:1/20:1): −1.250
[10]
  Linear Ratio, Taurine: 0.786
  VIP Score, Taurine: 2.042
  Z Abs, Taurine: 0.942
  Z Score, Taurine: −0.942
[11]
  Linear Ratio, L-Kynurenine: 1.099
  VIP Score, L-Kynurenine: 1.617
  Z Abs, L-Kynurenine: 0.625
  Z Score, L-Kynurenine: 0.625
[12]
  Linear Ratio, L-Phenylalanine: 1.164
  VIP Score, L-Phenylalanine: 1.839
  Z Abs, L-Phenylalanine: 0.957
  Z Score, L-Phenylalanine: 0.957
[13]
  Linear Ratio, 1,25-Dihydroxyvitamin D3: 0.273
  VIP Score, 1,25-Dihydroxyvitamin D3: 3.134
  Z Abs, 1,25-Dihydroxyvitamin D3: 1.447
  Z Score, 1,25-Dihydroxyvitamin D3: −1.447
